Measurements taken from ChEMBL document CHEMBL1201862, “PubChem BioAssay data set” (2004).
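Grown in 96-well plates, cells were treated for 48 hours with each compound at five concentrations. Insufficient inhibition: endpoint recorded as highest concentration tested. Abbreviation: GI50, concentration required for 50% inhibition of growth.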 Calls of active or inactive are those of the source. No stated cut-off is given here; in the data, active = GI50 up to about 1.1 µM and inactive = higher.

How the values were obtained:
Test in all cases: NCI-60 cell line screen, 48 h
[1] = tested on: SR
[2] = tested on: M19-MEL
[3] = tested on: Malme-3M
[4] = tested on: HOP-62
[5] = tested on: 786-0
[6] = tested on: CCRF-CEM
[7] = tested on: UACC-62
[8] = tested on: SF-268
[9] = tested on: IGROV-1
[10] = tested on: UO-31
[11] = tested on: KM-20L2
[12] = tested on: SK-MEL-28
[13] = tested on: RPMI-8226
[14] = tested on: SF-539
[15] = tested on: SNB-19
[16] = tested on: NCI-H460
[17] = tested on: U-251
[18] = tested on: LXFL 529
[19] = tested on: UACC-257
[20] = tested on: RXF 393
[21] = tested on: NCI-H23
[22] = tested on: K562
[23] = tested on: M14
[24] = tested on: SNB-75
[25] = tested on: COLO 205
[26] = tested on: ACHN
[27] = tested on: OVCAR-5
[28] = tested on: SNB-78
[29] = tested on: KM12
[30] = tested on: NCI-H522
[31] = tested on: SF-295
[32] = tested on: OVCAR-4
[33] = tested on: HCT-116
[34] = tested on: HOP-92
[35] = tested on: HT-29
[36] = tested on: MOLT-4
[37] = tested on: A498
[38] = tested on: SK-MEL-2
[39] = tested on: SK-OV-3
[40] = tested on: HL-60
[41] = tested on: OVCAR-8
[42] = tested on: HCT-15
[43] = tested on: DMS-114
[44] = tested on: LOX IMVI
[45] = tested on: DLD-1
[46] = tested on: HCC 2998
[47] = tested on: TK-10
[48] = tested on: OVCAR-3
[49] = tested on: DMS-273
[50] = tested on: SK-MEL-5
[51] = tested on: SN12C
[52] = tested on: XF498
[53] = tested on: SW-620
[54] = tested on: A549
[55] = tested on: EKVX
[56] = tested on: NCI/ADR-RES
[57] = tested on: BT-549
[58] = tested on: MCF7
[59] = tested on: MDA-MB-231
[60] = tested on: T47D
[61] = tested on: Hs-578T
[62] = tested on: NCI-H226
[63] = tested on: MDA-N
[64] = tested on: PC-3
[65] = tested on: DU-145
[66] = tested on: MDA-MB-435
[67] = tested on: CAKI-1

Q: `COc1ccc2c(c1)CC[C@@H]1C2CC[C@]2(C)C(=O)N(CCN3CCCCC3)C(=O)CC12` (stereo partly drawn) was tested. Which GI50 [1] did it give?
A: 75.3 µM (inactive)

Q: What about the GI50 [2] of the same molecule?
A: 35.8 µM (inactive)

Q: And the GI50 [3]?
A: 57.3 µM (inactive)

Q: And the GI50 [4]?
A: > 100 µM (inactive)

Q: And the GI50 [5]?
A: > 100 µM (inactive)

Q: And the GI50 [6]?
A: 75.5 µM (inactive)

Q: And the GI50 [7]?
A: 21.2 µM (inactive)

Q: And the GI50 [8]?
A: > 100 µM (inactive)

Q: And the GI50 [9]?
A: > 100 µM (inactive)

Q: And the GI50 [10]?
A: 83.2 µM (inactive)

Q: And the GI50 [11]?
A: 47.6 µM (inactive)

Q: What about the GI50 [12] of the same molecule?
A: 34.8 µM (inactive)

Q: What about the GI50 [13] of the same molecule?
A: 74.5 µM (inactive)

Q: And the GI50 [14]?
A: > 100 µM (inactive)

Q: What about the GI50 [15] of the same molecule?
A: > 100 µM (inactive)

Q: What about the GI50 [16] of the same molecule?
A: > 100 µM (inactive)

Q: What about the GI50 [17] of the same molecule?
A: > 100 µM (inactive)

Q: And the GI50 [18]?
A: > 100 µM (inactive)

Q: And the GI50 [19]?
A: 44.3 µM (inactive)

Q: What about the GI50 [20] of the same molecule?
A: 31.9 µM (inactive)

Q: And the GI50 [21]?
A: > 100 µM (inactive)

Q: And the GI50 [22]?
A: 58.1 µM (inactive)

Q: And the GI50 [23]?
A: 21.3 µM (inactive)

Q: What about the GI50 [24] of the same molecule?
A: 58.5 µM (inactive)

Q: What about the GI50 [25] of the same molecule?
A: > 100 µM (inactive)

Q: What about the GI50 [26] of the same molecule?
A: > 100 µM (inactive)

Q: And the GI50 [27]?
A: > 100 µM (inactive)

Q: What about the GI50 [28] of the same molecule?
A: > 100 µM (inactive)

Q: And the GI50 [29]?
A: > 100 µM (inactive)

Q: And the GI50 [30]?
A: 78.9 µM (inactive)

Q: What about the GI50 [31] of the same molecule?
A: > 100 µM (inactive)

Q: What about the GI50 [32] of the same molecule?
A: > 100 µM (inactive)

Q: What about the GI50 [33] of the same molecule?
A: > 100 µM (inactive)

Q: What about the GI50 [34] of the same molecule?
A: 44.5 µM (inactive)

Q: What about the GI50 [35] of the same molecule?
A: 51.5 µM (inactive)

Q: What about the GI50 [36] of the same molecule?
A: > 10 µM (inactive)

Q: What about the GI50 [37] of the same molecule?
A: 36.4 µM (inactive)

Q: And the GI50 [38]?
A: 60.3 µM (inactive)

Q: What about the GI50 [39] of the same molecule?
A: > 100 µM (inactive)

Q: What about the GI50 [40] of the same molecule?
A: 21.6 µM (inactive)

Q: What does the source list for `C#CN1C(=O)c2c(c(-c3ccccc3)c(-c3ccc(Oc4ccc(-c5c(-c6ccccc6)c6c(c(-c7ccccc7)c5-c5ccccc5)C(=O)N(C#C)C6=O)cc4)cc3)c(-c3ccccc3)c2-c2ccccc2)C1=O`?
A: GI50 [41]: > 100 µM (inactive); GI50 [42]: 30.8 µM; GI50 [43]: > 100 µM (inactive); GI50 [2]: > 100 µM (inactive); GI50 [3]: > 100 µM (inactive); GI50 [4]: > 100 µM (inactive); GI50 [5]: > 100 µM (inactive); GI50 [6]: > 100 µM (inactive); GI50 [44]: > 100 µM (inactive); GI50 [7]: > 100 µM (inactive); GI50 [8]: > 100 µM (inactive); GI50 [9]: 72.6 µM (inactive); GI50 [10]: > 100 µM (inactive); GI50 [11]: > 100 µM (inactive); GI50 [12]: > 100 µM (inactive); GI50 [13]: > 100 µM (inactive); GI50 [14]: > 100 µM (inactive); GI50 [15]: > 100 µM (inactive); GI50 [16]: > 100 µM (inactive); GI50 [17]: > 100 µM (inactive); GI50 [45]: > 100 µM (inactive); GI50 [19]: > 100 µM (inactive); GI50 [20]: 30.8 µM (inactive); GI50 [46]: > 100 µM (inactive); GI50 [21]: > 100 µM (inactive); GI50 [47]: > 100 µM (inactive); GI50 [22]: > 100 µM (inactive); GI50 [23]: 80.7 µM (inactive); GI50 [24]: > 100 µM (inactive); GI50 [25]: > 100 µM (inactive); GI50 [48]: > 100 µM (inactive); GI50 [26]: > 100 µM (inactive); GI50 [49]: > 100 µM (inactive); GI50 [50]: > 100 µM (inactive); GI50 [27]: > 100 µM (inactive); GI50 [51]: 30.1 µM (inactive); GI50 [29]: > 100 µM (inactive); GI50 [30]: > 100 µM (inactive); GI50 [52]: 23.2 µM (inactive); GI50 [31]: > 100 µM (inactive); GI50 [32]: > 100 µM (inactive); GI50 [33]: > 100 µM (inactive); GI50 [34]: 21.9 µM (inactive); GI50 [53]: > 100 µM (inactive); GI50 [35]: > 100 µM (inactive); GI50 [36]: > 100 µM (inactive); GI50 [38]: > 100 µM (inactive); GI50 [40]: > 100 µM (inactive); GI50 [54]: > 100 µM (inactive); GI50 [55]: > 100 µM (inactive)

Q: With `COC(=O)C(Cc1ccccc1)C(=O)NC(CNC(=O)OCc1ccccc1)C(=O)OCc1ccccc1` (stereo not drawn) as the molecule, how does the GI50 [41] read?
A: 63.1 µM (inactive)

Q: What about the GI50 [42] of the same molecule?
A: 45.7 µM

Q: And the GI50 [1]?
A: 24 µM (inactive)

Q: And the GI50 [56]?
A: 27 µM (inactive)

Q: And the GI50 [57]?
A: 53.3 µM (inactive)

Q: What about the GI50 [3] of the same molecule?
A: 19.8 µM (inactive)

Q: What about the GI50 [4] of the same molecule?
A: > 100 µM (inactive)

Q: What about the GI50 [58] of the same molecule?
A: > 100 µM (inactive)

Q: What about the GI50 [5] of the same molecule?
A: 25.9 µM (inactive)

Q: What about the GI50 [6] of the same molecule?
A: 14.7 µM (inactive)

Q: What about the GI50 [44] of the same molecule?
A: 19.6 µM (inactive)

Q: What about the GI50 [7] of the same molecule?
A: 23.6 µM (inactive)

Q: What about the GI50 [8] of the same molecule?
A: 44.8 µM (inactive)

Q: What about the GI50 [9] of the same molecule?
A: 65.6 µM (inactive)

Q: What about the GI50 [10] of the same molecule?
A: 28.6 µM (inactive)

Q: What about the GI50 [12] of the same molecule?
A: 19.3 µM (inactive)

Q: What about the GI50 [13] of the same molecule?
A: 21.4 µM (inactive)

Q: And the GI50 [59]?
A: 20.8 µM (inactive)

Q: And the GI50 [60]?
A: 36.1 µM (inactive)

Q: And the GI50 [14]?
A: 40.6 µM (inactive)

Q: And the GI50 [15]?
A: 86.3 µM (inactive)

Q: And the GI50 [16]?
A: 42.1 µM (inactive)

Q: And the GI50 [17]?
A: 49.1 µM (inactive)

Q: What about the GI50 [19] of the same molecule?
A: 17.6 µM (inactive)

Q: And the GI50 [61]?
A: > 63.5 µM (inactive)

Q: And the GI50 [20]?
A: 21.8 µM (inactive)

Q: What about the GI50 [46] of the same molecule?
A: 30.8 µM (inactive)

Q: What about the GI50 [21] of the same molecule?
A: 43.6 µM (inactive)

Q: What about the GI50 [62] of the same molecule?
A: 32.1 µM (inactive)

Q: And the GI50 [47]?
A: 33.7 µM (inactive)

Q: And the GI50 [22]?
A: 15.6 µM (inactive)

Q: And the GI50 [23]?
A: 15.3 µM (inactive)

Q: What about the GI50 [24] of the same molecule?
A: 23.3 µM (inactive)

Q: What about the GI50 [25] of the same molecule?
A: 19.8 µM (inactive)

Q: And the GI50 [48]?
A: 20 µM (inactive)

Q: What about the GI50 [26] of the same molecule?
A: 34.6 µM (inactive)

Q: And the GI50 [50]?
A: 18.8 µM (inactive)

Q: What about the GI50 [27] of the same molecule?
A: > 100 µM (inactive)

Q: And the GI50 [51]?
A: 49.8 µM (inactive)

Q: And the GI50 [63]?
A: 21.4 µM (inactive)

Q: What about the GI50 [29] of the same molecule?
A: 58.9 µM (inactive)

Q: And the GI50 [30]?
A: 26.7 µM (inactive)

Q: And the GI50 [31]?
A: 47.1 µM (inactive)

Q: And the GI50 [32]?
A: 38.3 µM (inactive)

Q: What about the GI50 [33] of the same molecule?
A: 31.9 µM (inactive)

Q: What about the GI50 [34] of the same molecule?
A: 32.1 µM (inactive)

Q: What about the GI50 [53] of the same molecule?
A: 38.1 µM (inactive)

Q: And the GI50 [35]?
A: 29.3 µM (inactive)

Q: And the GI50 [36]?
A: 11.8 µM (inactive)

Q: What about the GI50 [64] of the same molecule?
A: 38.2 µM (inactive)

Q: And the GI50 [65]?
A: 66.5 µM (inactive)

Q: And the GI50 [37]?
A: > 47.8 µM (inactive)

Q: And the GI50 [38]?
A: 24.1 µM (inactive)

Q: And the GI50 [39]?
A: > 100 µM (inactive)

Q: What about the GI50 [66] of the same molecule?
A: 21.8 µM (inactive)

Q: What about the GI50 [67] of the same molecule?
A: 36.8 µM (inactive)

Q: And the GI50 [40]?
A: 30.9 µM (inactive)

Q: And the GI50 [55]?
A: 76.7 µM (inactive)
